11 molecules from ChEMBL document CHEMBL5291721, “A preclinical secondary pharmacology resource illuminates target-adverse drug reaction associations of marketed drugs” (Nat Commun, 2023) can be followed below.

Each structure is given as a SMILES string. Bounds are passed on as bounds.

For assay [1], the target named is T1, Adenosine receptor A1 (Homo sapiens, UniProt P30542).
T1 sequence (P30542 whole entry): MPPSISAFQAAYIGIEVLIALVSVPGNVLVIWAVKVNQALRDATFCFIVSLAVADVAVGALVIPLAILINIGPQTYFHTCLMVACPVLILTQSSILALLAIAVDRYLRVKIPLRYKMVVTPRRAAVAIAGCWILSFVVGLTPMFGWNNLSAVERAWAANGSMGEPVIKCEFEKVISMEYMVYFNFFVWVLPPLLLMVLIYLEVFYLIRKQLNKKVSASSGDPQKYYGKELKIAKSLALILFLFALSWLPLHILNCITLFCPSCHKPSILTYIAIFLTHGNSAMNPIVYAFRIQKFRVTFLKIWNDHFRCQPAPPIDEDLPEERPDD

Assay [2] concerns the target T2, Alpha-2C adrenergic receptor (Homo sapiens, UniProt P18825).
T2 sequence (P18825 whole entry): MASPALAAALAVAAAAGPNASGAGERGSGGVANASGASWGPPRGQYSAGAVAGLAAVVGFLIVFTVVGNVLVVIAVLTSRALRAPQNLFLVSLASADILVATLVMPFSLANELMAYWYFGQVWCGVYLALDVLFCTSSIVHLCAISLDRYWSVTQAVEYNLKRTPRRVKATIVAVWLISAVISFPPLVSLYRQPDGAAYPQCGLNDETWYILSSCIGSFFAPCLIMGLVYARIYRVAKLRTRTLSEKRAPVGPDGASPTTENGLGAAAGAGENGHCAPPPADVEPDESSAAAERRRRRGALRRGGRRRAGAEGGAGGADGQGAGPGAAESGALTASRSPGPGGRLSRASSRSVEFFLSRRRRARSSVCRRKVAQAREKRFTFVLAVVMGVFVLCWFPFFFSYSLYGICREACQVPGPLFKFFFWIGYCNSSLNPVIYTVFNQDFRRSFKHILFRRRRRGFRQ
It counts as functional.

Assay [3] has as its target Neuronal acetylcholine receptor subunit alpha-4 (Homo sapiens, UniProt P43681).
Assay [4] concerns the target T3, Cannabinoid receptor 1 (Homo sapiens, UniProt P21554). The class given is functional, cell-based.
Assay [5] addresses T4, Endothelin-1 receptor (Homo sapiens, UniProt P25101).
T4 sequence (P25101 whole entry): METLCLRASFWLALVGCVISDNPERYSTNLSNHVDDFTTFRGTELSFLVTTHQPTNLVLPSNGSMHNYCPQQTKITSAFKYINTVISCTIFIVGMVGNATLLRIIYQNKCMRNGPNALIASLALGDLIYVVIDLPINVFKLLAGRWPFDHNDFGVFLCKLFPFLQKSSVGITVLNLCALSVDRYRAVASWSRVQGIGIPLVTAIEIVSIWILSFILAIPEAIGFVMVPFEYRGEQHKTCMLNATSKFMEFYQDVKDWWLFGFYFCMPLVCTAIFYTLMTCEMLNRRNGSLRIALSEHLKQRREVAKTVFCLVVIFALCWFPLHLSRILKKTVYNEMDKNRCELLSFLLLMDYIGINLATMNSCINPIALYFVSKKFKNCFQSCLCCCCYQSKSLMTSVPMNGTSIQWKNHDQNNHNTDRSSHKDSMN

Assay [6] addresses Gamma-aminobutyric acid receptor subunit alpha-1 (Rattus norvegicus, UniProt P62813). The class given is functional.
For assay [7], the target named is Histamine H2 receptor (Homo sapiens, UniProt P25021). The class given is functional, cell-based.
Chain of Histamine H2 receptor (P25021 whole entry): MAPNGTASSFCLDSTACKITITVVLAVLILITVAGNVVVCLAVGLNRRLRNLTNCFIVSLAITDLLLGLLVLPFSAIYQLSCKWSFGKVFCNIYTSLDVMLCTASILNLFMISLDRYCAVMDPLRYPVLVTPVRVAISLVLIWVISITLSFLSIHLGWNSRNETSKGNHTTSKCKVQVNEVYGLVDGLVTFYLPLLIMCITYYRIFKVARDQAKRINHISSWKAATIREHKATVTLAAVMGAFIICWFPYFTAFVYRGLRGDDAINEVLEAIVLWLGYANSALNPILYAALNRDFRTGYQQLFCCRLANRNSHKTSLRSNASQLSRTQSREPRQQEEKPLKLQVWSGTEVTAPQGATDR
Assay [8] addresses T5, 5-hydroxytryptamine receptor 2A (Homo sapiens, UniProt P28223). The class given is functional, cell-based.
The target in assay [9] is T5, 5-hydroxytryptamine receptor 2A. It counts as functional, cell-based. This is another data set of the same source.
For assay [10], the target named is T6, 5-hydroxytryptamine receptor 3A (Homo sapiens, UniProt P46098).
T6 sequence (P46098 whole entry): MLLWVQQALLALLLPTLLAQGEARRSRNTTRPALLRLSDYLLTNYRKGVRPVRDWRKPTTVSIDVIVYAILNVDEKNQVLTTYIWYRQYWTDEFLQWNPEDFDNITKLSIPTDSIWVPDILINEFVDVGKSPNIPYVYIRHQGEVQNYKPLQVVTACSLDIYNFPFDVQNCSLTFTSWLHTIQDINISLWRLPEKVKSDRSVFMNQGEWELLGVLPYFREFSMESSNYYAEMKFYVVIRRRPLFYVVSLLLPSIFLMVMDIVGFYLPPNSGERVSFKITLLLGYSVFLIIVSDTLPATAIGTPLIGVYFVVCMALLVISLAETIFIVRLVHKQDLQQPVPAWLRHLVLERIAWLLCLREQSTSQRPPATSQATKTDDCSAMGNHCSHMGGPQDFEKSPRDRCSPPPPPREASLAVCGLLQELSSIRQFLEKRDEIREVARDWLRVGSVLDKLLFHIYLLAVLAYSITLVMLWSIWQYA
It counts as functional.

Assay [11] addresses Kappa-type opioid receptor (Homo sapiens, UniProt P41145).
Assay [12] deals with Histamine H3 receptor (Homo sapiens, UniProt Q9Y5N1).
Chain of Histamine H3 receptor (Q9Y5N1 whole entry): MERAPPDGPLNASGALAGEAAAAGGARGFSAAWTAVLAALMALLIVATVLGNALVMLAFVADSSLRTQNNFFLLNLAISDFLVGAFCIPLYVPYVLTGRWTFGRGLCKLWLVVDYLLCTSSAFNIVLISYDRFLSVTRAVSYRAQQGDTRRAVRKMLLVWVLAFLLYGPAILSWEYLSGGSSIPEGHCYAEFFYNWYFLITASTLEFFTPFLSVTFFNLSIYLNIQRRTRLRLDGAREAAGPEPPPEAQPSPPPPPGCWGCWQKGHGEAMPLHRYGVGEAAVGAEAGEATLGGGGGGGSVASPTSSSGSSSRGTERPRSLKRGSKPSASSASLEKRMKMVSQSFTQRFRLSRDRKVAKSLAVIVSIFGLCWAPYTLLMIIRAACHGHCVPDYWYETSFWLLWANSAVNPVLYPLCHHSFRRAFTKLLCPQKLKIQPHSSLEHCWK
For assay [13], the target named is T3, Cannabinoid receptor 1.
In assay [14] the target is T7, Estrogen receptor (Homo sapiens, UniProt P03372).
T7 sequence (P03372 whole entry): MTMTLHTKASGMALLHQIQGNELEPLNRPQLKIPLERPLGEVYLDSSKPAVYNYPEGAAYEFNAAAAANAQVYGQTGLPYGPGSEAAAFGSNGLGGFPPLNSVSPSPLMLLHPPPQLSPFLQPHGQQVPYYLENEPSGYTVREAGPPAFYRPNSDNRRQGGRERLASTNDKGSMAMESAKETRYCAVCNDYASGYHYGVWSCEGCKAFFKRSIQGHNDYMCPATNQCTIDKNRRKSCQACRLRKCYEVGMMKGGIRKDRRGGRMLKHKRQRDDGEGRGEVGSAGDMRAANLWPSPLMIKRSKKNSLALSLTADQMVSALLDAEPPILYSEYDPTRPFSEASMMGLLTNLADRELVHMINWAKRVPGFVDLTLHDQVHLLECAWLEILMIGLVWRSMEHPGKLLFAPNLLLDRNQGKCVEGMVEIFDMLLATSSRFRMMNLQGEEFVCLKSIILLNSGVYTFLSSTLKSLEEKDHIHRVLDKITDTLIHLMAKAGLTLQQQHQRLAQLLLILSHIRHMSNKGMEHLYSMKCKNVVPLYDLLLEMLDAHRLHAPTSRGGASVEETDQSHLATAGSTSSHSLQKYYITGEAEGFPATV
Further: assay procedure not described here.

T3 sequence (P21554 whole entry): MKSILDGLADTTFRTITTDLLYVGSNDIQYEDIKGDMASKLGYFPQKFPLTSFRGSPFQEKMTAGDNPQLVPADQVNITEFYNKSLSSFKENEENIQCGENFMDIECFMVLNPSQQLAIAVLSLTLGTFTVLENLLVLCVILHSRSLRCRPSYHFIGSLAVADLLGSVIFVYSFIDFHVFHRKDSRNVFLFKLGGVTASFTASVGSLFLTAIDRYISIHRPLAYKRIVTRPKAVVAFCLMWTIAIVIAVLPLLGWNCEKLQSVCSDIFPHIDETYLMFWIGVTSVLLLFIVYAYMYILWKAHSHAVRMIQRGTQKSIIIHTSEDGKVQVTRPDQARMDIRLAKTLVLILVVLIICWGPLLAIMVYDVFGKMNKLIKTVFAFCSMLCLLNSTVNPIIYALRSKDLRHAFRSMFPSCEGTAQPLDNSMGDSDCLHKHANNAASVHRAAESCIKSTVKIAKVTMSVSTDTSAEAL
Chain of Gamma-aminobutyric acid receptor subunit alpha-1 (P62813 whole entry): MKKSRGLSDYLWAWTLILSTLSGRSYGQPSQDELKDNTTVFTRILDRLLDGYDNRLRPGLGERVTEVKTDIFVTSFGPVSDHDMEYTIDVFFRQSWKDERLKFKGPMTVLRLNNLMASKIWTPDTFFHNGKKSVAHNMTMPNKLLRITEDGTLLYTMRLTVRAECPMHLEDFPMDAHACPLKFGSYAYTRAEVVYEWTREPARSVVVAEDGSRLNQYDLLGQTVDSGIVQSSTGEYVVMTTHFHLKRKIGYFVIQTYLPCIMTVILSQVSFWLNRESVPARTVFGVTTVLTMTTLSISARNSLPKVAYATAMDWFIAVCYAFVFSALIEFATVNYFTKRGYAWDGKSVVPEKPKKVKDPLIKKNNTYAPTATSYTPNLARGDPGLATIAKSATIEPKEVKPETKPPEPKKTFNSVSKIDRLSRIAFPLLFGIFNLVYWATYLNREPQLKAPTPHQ
T5 sequence (P28223 whole entry): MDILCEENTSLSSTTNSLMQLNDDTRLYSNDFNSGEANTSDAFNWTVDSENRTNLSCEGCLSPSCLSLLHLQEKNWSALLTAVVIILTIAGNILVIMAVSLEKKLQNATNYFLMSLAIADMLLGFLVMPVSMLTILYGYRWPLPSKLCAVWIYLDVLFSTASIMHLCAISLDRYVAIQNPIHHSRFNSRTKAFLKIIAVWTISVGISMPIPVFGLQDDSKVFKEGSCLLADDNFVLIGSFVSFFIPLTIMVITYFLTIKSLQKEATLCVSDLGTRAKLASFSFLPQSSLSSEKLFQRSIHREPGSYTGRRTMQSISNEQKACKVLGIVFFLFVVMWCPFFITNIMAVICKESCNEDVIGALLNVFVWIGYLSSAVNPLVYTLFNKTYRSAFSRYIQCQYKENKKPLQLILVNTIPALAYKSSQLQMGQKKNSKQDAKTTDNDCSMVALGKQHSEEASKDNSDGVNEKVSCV
Chain of Neuronal acetylcholine receptor subunit alpha-4 (P43681 whole entry): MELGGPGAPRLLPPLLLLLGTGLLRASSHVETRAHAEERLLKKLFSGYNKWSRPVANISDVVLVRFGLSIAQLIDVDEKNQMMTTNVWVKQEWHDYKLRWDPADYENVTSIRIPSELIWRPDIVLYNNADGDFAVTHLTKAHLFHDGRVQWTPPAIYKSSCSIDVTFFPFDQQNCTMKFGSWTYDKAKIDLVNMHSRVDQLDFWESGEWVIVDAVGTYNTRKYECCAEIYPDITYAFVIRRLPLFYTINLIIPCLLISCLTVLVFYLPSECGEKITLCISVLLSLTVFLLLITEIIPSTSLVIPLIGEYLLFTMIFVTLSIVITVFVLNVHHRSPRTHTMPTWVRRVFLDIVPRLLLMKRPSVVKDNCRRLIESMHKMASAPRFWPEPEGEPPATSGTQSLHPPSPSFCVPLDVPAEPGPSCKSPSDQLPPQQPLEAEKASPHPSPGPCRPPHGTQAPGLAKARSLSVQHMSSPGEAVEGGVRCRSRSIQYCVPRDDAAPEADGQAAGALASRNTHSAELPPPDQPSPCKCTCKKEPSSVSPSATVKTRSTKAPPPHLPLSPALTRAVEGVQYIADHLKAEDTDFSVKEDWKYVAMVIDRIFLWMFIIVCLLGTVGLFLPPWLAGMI
Chain of Kappa-type opioid receptor (P41145 whole entry): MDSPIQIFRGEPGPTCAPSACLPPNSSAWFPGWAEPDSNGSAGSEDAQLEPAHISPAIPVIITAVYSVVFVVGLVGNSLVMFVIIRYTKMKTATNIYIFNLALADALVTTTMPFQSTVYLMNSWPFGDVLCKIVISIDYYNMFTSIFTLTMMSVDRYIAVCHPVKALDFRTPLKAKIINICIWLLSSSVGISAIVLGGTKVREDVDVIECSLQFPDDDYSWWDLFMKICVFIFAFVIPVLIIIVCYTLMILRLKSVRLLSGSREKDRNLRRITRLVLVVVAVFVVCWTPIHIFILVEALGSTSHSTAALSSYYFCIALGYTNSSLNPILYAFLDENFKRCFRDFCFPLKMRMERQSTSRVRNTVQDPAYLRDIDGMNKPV

In general, AC50 refers to the midpoint of the concentration-response curve, whichever way the signal moves. Low readings indicate greater potency, high ones weaker potency. Take `COc1cc(C(=O)OCc2cccc(COC(=O)c3cc(OC)c(OC)c(OC)c3)n2)cc(OC)c1OC` [PIROZADIL]: the AC50 in assay [1], in assay [2], in assay [3], in assay [4], in assay [5] and in assay [6] was more than 30 µM each time. Besides, the AC50 in assay [7], in [8], in assay [9], in assay [10], in assay [11] and in assay [12] was more than 30 µM each time.
`Oc1cc(O)c(Cl)cn1`: the AC50 in assay [1], in assay [2], in [3], in [4], in assay [5] and in assay [6] was more than 30 µM each time. In addition, the AC50 in assay [7], in assay [8], in assay [9], in [10], in assay [11] and in [12] was more than 30 µM each time.
Take `C=CCN1CCc2nc(N)sc2CC1` [TALIPEXOLE]: the AC50 in assay [1] was more than 30 µM; in assay [2], 0.71 µM; in assay [3] it was more than 30 µM; in [4] it was more than 30 µM; in assay [5], more than 30 µM; in assay [6], more than 30 µM. In addition, the AC50 was more than 30 µM in [7]; 11 µM in assay [8]; 24 µM in assay [9]; more than 30 µM in assay [10]; 17 µM in assay [11]; 3.3 µM in assay [12].
Turning to `c1ccc(C2(N3CCCCC3)CCCCC2)cc1` [PHENCYCLIDINE], the AC50 in assay [1], in [2], in [3], in assay [4], in assay [5] and in assay [6] was more than 30 µM in each case. The AC50 in assay [7], in [8], in assay [9], in assay [10], in assay [11] and in assay [12] was more than 30 µM in each case.
With `O=C(NCCO[N+](=O)[O-])c1cccnc1` [NICORANDIL], the AC50 in [1], in assay [2], in [3], in assay [4], in assay [5] and in [6] was more than 30 µM throughout. The half-maximal activity concentration (AC50) in assay [7], in assay [8], in assay [9], in [10], in assay [11] and in [12] was more than 30 µM throughout.
For the molecule `CCCN1CCCC[C@H]1C(=O)Nc1c(C)cccc1C` [ROPIVACAINE], the AC50 in assay [1], in [2], in [3], in assay [4], in assay [5] and in [6] was more than 30 µM each time. For the same molecule, the AC50 in assay [7], in assay [8], in [9], in assay [10], in assay [11] and in [12] was more than 30 µM throughout.
Regarding `CO[C@H]1C[C@H](O[C@H]2CC[C@@]3(C)[C@H](CC[C@@H]4[C@@H]3CC[C@]3(C)[C@@H](C5=CC(=O)OC5)[C@@H](OC(C)=O)C[C@]43O)C2)O[C@@H](C)[C@@H]1O` [OLEANDRIN], the AC50 in assay [2], in [4], in [6], in assay [7], in [8] and in [9] was more than 30 µM throughout. The AC50 in assay [10] and in assay [11] was more than 30 µM in each case.
Turning to `NNC(=O)c1ccncc1` [ISONIAZID], the AC50 in assay [1], in [2], in [3], in assay [4], in [13] and in assay [5] was more than 30 µM in each case. Further, the AC50 in assay [14] is more than 30 µM; in assay [6] it was more than 30 µM; in assay [7] it was more than 10 µM; in assay [10], more than 30 µM; in assay [11], more than 30 µM; in assay [12], more than 30 µM.
With `CCOC(=O)[C@@H](N)Cc1ccc(-c2cc(O[C@H](c3ccc(Cl)cc3-n3ccc(C)n3)C(F)(F)F)nc(N)n2)cc1` [TELOTRISTAT ETHYL], the AC50 is more than 30 µM in assay [1]; 22 µM in [2]; more than 30 µM in assay [3]; more than 30 µM in assay [5]; more than 30 µM in assay [6]; more than 30 µM in assay [7]. Further, the AC50 is more than 30 µM in assay [8], 24 µM in assay [10], more than 30 µM in assay [11] and more than 30 µM in [12].
With `CC(=O)[C@H]1CC[C@H]2[C@@H]3C[C@H](C)C4=CC(=O)CC[C@]4(C)[C@H]3[C@@H](O)C[C@]12C` [MEDRYSONE], the AC50 is more than 10 µM in [1]; more than 10 µM in assay [2]; more than 10 µM in [3]; more than 30 µM in [4]; more than 10 µM in [6]; more than 10 µM in assay [7]. Further, the AC50 was more than 10 µM in assay [8], more than 10 µM in assay [9], more than 30 µM in assay [10] and more than 10 µM in [11].
Consider `CCCCOc1ccc(C(=O)CCN2CCCCC2)cc1` [DYCLONINE], for which the AC50 in [1] was more than 30 µM; in assay [2], 8.4 µM; in [3] it was more than 10 µM; in assay [4], more than 30 µM; in assay [13], more than 10 µM; in assay [5] it was more than 30 µM. Besides, the AC50 in assay [14] was more than 30 µM; in assay [6], more than 10 µM; in assay [7], more than 10 µM; in assay [10], more than 10 µM; in assay [11] it was more than 10 µM; in assay [12] it was 3.9 µM.
